Source: PubChem BioAssay AID1963842 (Molecular Pharmacology Branch, DTP, NCI, 2024)

Test system: 677734-321-R-J1-PDC complex spheroid viability
Assay: Anticancer human tumor 677734-321-R-J1-PDC patient-derived soft tissue sarcoma cell line growth inhibition [POLQ]
Conditions: for IC50: curve of first compound; for viability, T/C: stronger effect = lower value
Procedure, shortened: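 Complex spheroid viability model combining PDC tumour cells with endothelial (HUVEC) and MSC stromal cells. Novobiocin, ART-558 or RP6685 were tested singly and in combination with standard and investigational anticancer drugs. Each was titrated in half-log steps from near clinical Cmax, or from 10 microM where Cmax was unknown.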

[1] = second compound 0.0316 µM, first compound 0.0316 µM
[2] = second compound 0.0316 µM, first compound 0.1 µM
[3] = second compound 0.0316 µM, first compound 0.316 µM
[4] = second compound 0.0316 µM, first compound 1 µM
[5] = second compound 0.1 µM, first compound 0.0316 µM
[6] = second compound 0.1 µM, first compound 0.1 µM
[7] = second compound 0.1 µM, first compound 0.316 µM
[8] = second compound 0.1 µM, first compound 1 µM
[9] = second compound 0.316 µM, first compound 0.0316 µM
[10] = second compound 0.316 µM, first compound 0.1 µM
[11] = second compound 0.316 µM, first compound 0.316 µM
[12] = second compound 0.316 µM, first compound 1 µM
[13] = second compound 1 µM, first compound 0.0316 µM
[14] = second compound 1 µM, first compound 0.1 µM
[15] = second compound 1 µM, first compound 0.316 µM
[16] = second compound 1 µM, first compound 1 µM
[17] = second compound 3.16 µM, first compound 0.0316 µM
[18] = second compound 3.16 µM, first compound 0.1 µM
[19] = second compound 3.16 µM, first compound 0.316 µM
[20] = second compound 3.16 µM, first compound 1 µM
[21] = second compound 10 µM, first compound 0.0316 µM
[22] = second compound 10 µM, first compound 0.1 µM
[23] = second compound 10 µM, first compound 0.316 µM
[24] = second compound 10 µM, first compound 1 µM
[25] = second compound 0.0316 µM, first compound 0.00316 µM
[26] = second compound 0.0316 µM, first compound 0.01 µM
[27] = second compound 0.1 µM, first compound 0.00316 µM
[28] = second compound 0.1 µM, first compound 0.01 µM
[29] = second compound 0.316 µM, first compound 0.00316 µM
[30] = second compound 0.316 µM, first compound 0.01 µM
[31] = second compound 1 µM, first compound 0.00316 µM
[32] = second compound 1 µM, first compound 0.01 µM
[33] = second compound 3.16 µM, first compound 0.00316 µM
[34] = second compound 3.16 µM, first compound 0.01 µM
[35] = second compound 10 µM, first compound 0.00316 µM
[36] = second compound 10 µM, first compound 0.01 µM
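Note: spheroids exposed to compounds for one week.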
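Throughout, for viability, T/C: 100% = vehicle DMSO treated spheroids.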

In the case of `COc1ccc([C@@H](O)c2cc(-c3ncnc4cc(N5CCOCC5)ccc34)c(F)cc2Cl)nn1` + COC1C(OC(N)=O)C(O)C(Oc2ccc3c(O)c(NC(=O)c4ccc(O)c(CC=C(C)C)c4)c(=O)oc3c2C)OC1(C)C, the IC50 (second compound 0.0316 µM) is reported as > 10000 nM, the IC50 (second compound 0.1 µM) is reported as 9810 nM and the IC50 (second compound 0.316 µM) is reported as 9580 nM. The IC50 (second compound 1 µM) was > 10000 nM, the IC50 (second compound 3.16 µM) was > 10000 nM and the IC50 (second compound 10 µM) was > 10000 nM. For the same compound, the viability, T/C [1] was 106%, the viability, T/C [2] was 112% and the viability, T/C [3] was 99.7%. For the same compound, the viability, T/C [4] was 105%, the viability, T/C (second compound 0.0316 µM, first compound 3.16 µM) was 82.1% and the viability, T/C (second compound 0.0316 µM, first compound 10 µM) was 56.9%. It also gave a viability, T/C [5] of 112%, a viability, T/C [6] of 107% and a viability, T/C [7] of 100%. It also gave a viability, T/C [8] of 98.2%, a viability, T/C (second compound 0.1 µM, first compound 3.16 µM) of 83.8% and a viability, T/C (second compound 0.1 µM, first compound 10 µM) of 48.8%. It also gave a viability, T/C [9] of 110%, a viability, T/C [10] of 104% and a viability, T/C [11] of 104%. The viability, T/C [12] was 98.4%, the viability, T/C (second compound 0.316 µM, first compound 3.16 µM) was 82.5% and the viability, T/C (second compound 0.316 µM, first compound 10 µM) was 48.6%. It also gave a viability, T/C [13] of 111%, a viability, T/C [14] of 102% and a viability, T/C [15] of 97.3%. The viability, T/C [16] was 100%, the viability, T/C (second compound 1 µM, first compound 3.16 µM) was 79.4% and the viability, T/C (second compound 1 µM, first compound 10 µM) was 52.5%. For the same compound, the viability, T/C [17] was 107%, the viability, T/C [18] was 106% and the viability, T/C [19] was 106%. It also gave a viability, T/C [20] of 93.1%, a viability, T/C (second compound 3.16 µM, first compound 3.16 µM) of 79.5% and a viability, T/C (second compound 3.16 µM, first compound 10 µM) of 56.1%. The viability, T/C [21] was 111%, the viability, T/C [22] was 105% and the viability, T/C [23] was 104%. It also gave a viability, T/C [24] of 108%, a viability, T/C (second compound 10 µM, first compound 3.16 µM) of 85.1% and a viability, T/C (second compound 10 µM, first compound 10 µM) of 50.9%.

`COc1cccc(OCCCN)c1-c1cc(Nc2cnc(C#N)cn2)n[nH]1` + COC1C(OC(N)=O)C(O)C(Oc2ccc3c(O)c(NC(=O)c4ccc(O)c(CC=C(C)C)c4)c(=O)oc3c2C)OC1(C)C showed an IC50 (second compound 0.0316 µM) of 7.45 nM, an IC50 (second compound 0.1 µM) of 7.48 nM and an IC50 (second compound 0.316 µM) of 7.05 nM. It also gave an IC50 (second compound 1 µM) of 8.14 nM, an IC50 (second compound 3.16 µM) of 7.37 nM and an IC50 (second compound 10 µM) of 7.32 nM. The viability, T/C [25] was 97.1%, the viability, T/C [26] was 33.8% and the viability, T/C [1] was 12.8%. It also gave a viability, T/C [2] of 9.46%, a viability, T/C [3] of 8.59% and a viability, T/C [4] of 8.45%. For the same compound, the viability, T/C [27] was 92.5%, the viability, T/C [28] was 35.6% and the viability, T/C [5] was 11.9%. The viability, T/C [6] was 8.91%, the viability, T/C [7] was 9.88% and the viability, T/C [8] was 7.56%. It also gave a viability, T/C [29] of 97.3%, a viability, T/C [30] of 29% and a viability, T/C [9] of 14.7%. For the same compound, the viability, T/C [10] was 9.01%, the viability, T/C [11] was 10.5% and the viability, T/C [12] was 7.41%. For the same compound, the viability, T/C [31] was 102%, the viability, T/C [32] was 38.5% and the viability, T/C [13] was 9.9%. The viability, T/C [14] was 11.4%, the viability, T/C [15] was 11.9% and the viability, T/C [16] was 8.34%. For the same compound, the viability, T/C [33] was 103%, the viability, T/C [34] was 30.6% and the viability, T/C [17] was 11.9%. It also gave a viability, T/C [18] of 9.84%, a viability, T/C [19] of 12.3% and a viability, T/C [20] of 9.73%. For the same compound, the viability, T/C [35] was 88.4%, the viability, T/C [36] was 35.7% and the viability, T/C [21] was 12.3%. For the same compound, the viability, T/C [22] was 12%, the viability, T/C [23] was 10.3% and the viability, T/C [24] was 9.04%.

In the case of `Cn1ncnc1[C@H]1c2n[nH]c(=O)c3cc(F)cc(c23)N[C@@H]1c1ccc(F)cc1` + COC1C(OC(N)=O)C(O)C(Oc2ccc3c(O)c(NC(=O)c4ccc(O)c(CC=C(C)C)c4)c(=O)oc3c2C)OC1(C)C, the IC50 (second compound 0.0316 µM) is reported as > 100 nM, the IC50 (second compound 0.1 µM) is reported as > 100 nM and the IC50 (second compound 0.316 µM) is reported as > 100 nM. The IC50 (second compound 1 µM) was > 100 nM, the IC50 (second compound 3.16 µM) was > 100 nM and the IC50 (second compound 10 µM) was > 100 nM. For the same compound, the viability, T/C (second compound 0.0316 µM, first compound 0.000316 µM) was 101%, the viability, T/C (second compound 0.0316 µM, first compound 0.001 µM) was 103% and the viability, T/C [25] was 99.7%. It also gave a viability, T/C [26] of 101%, a viability, T/C [1] of 98.8% and a viability, T/C [2] of 85.7%. It also gave a viability, T/C (second compound 0.1 µM, first compound 0.000316 µM) of 97.6%, a viability, T/C (second compound 0.1 µM, first compound 0.001 µM) of 101% and a viability, T/C [27] of 106%. For the same compound, the viability, T/C [28] was 101%, the viability, T/C [5] was 98.5% and the viability, T/C [6] was 95.2%. For the same compound, the viability, T/C (second compound 0.316 µM, first compound 0.000316 µM) was 106%, the viability, T/C (second compound 0.316 µM, first compound 0.001 µM) was 97.8% and the viability, T/C [29] was 98.5%. For the same compound, the viability, T/C [30] was 104%, the viability, T/C [9] was 97.6% and the viability, T/C [10] was 93.4%. It also gave a viability, T/C (second compound 1 µM, first compound 0.000316 µM) of 109%, a viability, T/C (second compound 1 µM, first compound 0.001 µM) of 102% and a viability, T/C [31] of 103%. It also gave a viability, T/C [32] of 104%, a viability, T/C [13] of 96.3% and a viability, T/C [14] of 92.5%. For the same compound, the viability, T/C (second compound 3.16 µM, first compound 0.000316 µM) was 108%, the viability, T/C (second compound 3.16 µM, first compound 0.001 µM) was 94.7% and the viability, T/C [33] was 103%. For the same compound, the viability, T/C [34] was 100%, the viability, T/C [17] was 106% and the viability, T/C [18] was 94.4%. The viability, T/C (second compound 10 µM, first compound 0.000316 µM) was 103%, the viability, T/C (second compound 10 µM, first compound 0.001 µM) was 100% and the viability, T/C [35] was 106%. The viability, T/C [36] was 103%, the viability, T/C [21] was 99.4% and the viability, T/C [22] was 93.3%.
